Target: T1, human placental aromatase (Homo sapiens, UniProt P11511)
T1 construct: utilizes the human placental microsomal fraction as enzyme source; from tissue; host or cells: human placenta, microsomal fraction
T1 sequence (P11511 1-503): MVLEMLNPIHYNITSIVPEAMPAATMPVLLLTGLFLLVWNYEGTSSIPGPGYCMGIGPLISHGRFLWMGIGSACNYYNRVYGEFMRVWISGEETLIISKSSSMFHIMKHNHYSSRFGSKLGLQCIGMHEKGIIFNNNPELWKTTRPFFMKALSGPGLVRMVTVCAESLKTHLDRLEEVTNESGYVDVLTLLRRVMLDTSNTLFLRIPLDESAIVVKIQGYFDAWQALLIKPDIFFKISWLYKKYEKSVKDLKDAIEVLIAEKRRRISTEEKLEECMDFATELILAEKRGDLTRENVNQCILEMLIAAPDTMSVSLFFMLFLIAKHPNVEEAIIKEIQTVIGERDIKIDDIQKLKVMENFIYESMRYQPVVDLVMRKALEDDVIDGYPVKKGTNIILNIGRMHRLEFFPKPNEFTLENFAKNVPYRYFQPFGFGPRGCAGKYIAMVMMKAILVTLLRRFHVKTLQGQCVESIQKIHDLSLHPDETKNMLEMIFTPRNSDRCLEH
Assay: Inhibition of human placental aromatase (in vitro test of Thompson and Siiteri, 3H2O release from [1β-3H]androstenedione)
Format: biochemical
Conditions: human placental microsomal fraction as enzyme source; compounds incubated for 15 min at 37°C with 50 nM [1β-3H]androstenedione in the presence of NADPH
Experimental: Estrogens are also involved in the pathogenesis of benign prostatic hyperplasia. Endogenous estrogens are ultimately formed from either androstenedione or testosterone as immediate precursors. The reaction of central importance is the aromatization of the steroidic ring A, which is performed by the enzyme aromatase. […] In this test the aromatization rate of androstenedione into estrone was evaluated by incubating (1β-^3H) androstenedione (50 nM) in the presence of NADPH with the enzyme preparation and by measuring the amount of^3H2O formed during 15 min incubation at 37°C.

IC50 | SMILES
1.5 nM | CCOC(=O)C1=C(C)NC(C)=C(C#N)C1c1cccc(-n2ccnc2)c1 (racemic) [FCE 29013, 4-(3-1H-imidazol-1-yl-phenyl)-2,6-dimethyl-1,4-dihydropyridine-3-carbonitrile-5-carboxylic acid ethyl ester]
12 nM | Cc1nc(C)c(C#N)c(-c2cccc(-n3ccnc3)c2)c1C#N [FCE 28717, 4-(3-1H-imidazol-1-yl-phenyl)-2,6-dimethylpyridine-3,5-dicarbonitrile]
25 nM | CC1=C(C#N)C(c2cccc(-n3cncn3)c2)C(C#N)=C(C)N1 [FCE 29138, 4-[3-(1,2,4)triazol-1-yl-phenyl]-2,6-dimethyl-1,4-dihydropyridine-3,5-dicarbonitrile]
1.7 nM | CC1=C(C#N)C(c2cccc(-n3ccnc3)c2)C(C#N)=C(C)N1 [FCE 28718, 4-(3-1H-imidazol-1-yl-phenyl)-2,6-dimethyl-1,4-dihydropyridine-3,5-dicarbonitrile]
